In patent US4153709A, “N-Heterocyclic ureas as immune regulants” (Eli Lilly and Company, priority 1977, dated 1979):
Like-named read-outs stand apart in the source and are kept apart here.

What was measured:
[1] = test system: Salmonella typhimurium G46 missense histidine-auxotroph; assay: Qualitative in vitro prescreen for mutagenicity, G46 indicator (Table 22); conditions: 200 mcg disc
Excerpt: Filter paper discs 1/4" were impregnated with 200 mcg of test compound using either H2 O or DMSO as solvent. The discs were placed on Petri dishes containing minimal media which had been individually seeded with one of the twelve tester strains. […] A uniform circle of colonies appear around the pad when a compound with mutagenic potential is present. The test compound forms a concentration gradient as it diffuses from the pad. Occasionally, there is a clear ring in close proximity to the pad surrounded by a uniform circle of revertant colonies which indicates a lethal mutation at high concentration of compound and nonlethal mutation at lesser concentration. A single pad thus allows one to test a compound over a wide range of concentrations. Histidine+ colonies were developed enough to read after 48 hr. incubation at 37° C. The plates were read as follows:
A. background zone, if present, is measured in millimeters, if not, a negative is recorded (-).
B. mutant zone is measured in millimiters, if present; if not, a negative (-) is recorded.
C. the mutation frequency can be estimated from density of mutant colonies as follows:
1. Low frequency--few colonies
2. Moderate frequency--many colonies
3. High frequency--dense ring of colonies
4. No colonies recorded (-)

[2] = test system: Salmonella typhimurium G46 missense histidine-auxotroph; assay: Host mediated assay (in vivo mutagenicity), G46 indicator (Table 22); design: species or system Salmonella typhimurium in Cox white Swiss male mice
Procedure: Cox white Swiss male mice 25-30 grams were used in all in vivo tests.
A. Drug Administration: Appropriate solvents were used where applicable with a solvent control run within each test. […] The organisms were grown to stationary phase, then diluted with normal saline to give an inoculum near 1×10^8 organisms per milliliter. The abdominal area of the drug-treated mouse was swabbed with alcohol and two milliliters of bacterial culture were injected into the abdominal cavity of the mouse. The mice were returned to their cages for 3-4 hours.
C. Autopsy and Recovery: The mice were sacrificed individually by cervical dislocation prior to each autopsy. The abdominal areas were soaked with ethanol. The peritoneum was bared and 2.5 ml. of sterile normal saline was injected into the peritoneal cavity using a sterile (3-ml. plastic syringe with a 20-gauge needle. After insertion, the needle is turned bevel up and the saline was expelled into the cavity; while the needle remains through the peritoneum, keeping the point of the needle in sight pressed against the peritoneal wall, the abdomen of the mouse was massaged to mix contents. The saline wash was removed from the abdominal cavity back into the syringe. The needle was removed and the contents expelled into an appropriately marked tube and iced 4° C.
D. Dilution and Plating: One-ml. samples were plated at 10° dilution on all mice to determine revertants (histidine+).
A one-milliliter sample from the untreated dilutions from control animals is plated 10^-6, 10^-7, and 10^-8 dilutions with excess histidine to determine mutable population (histidine-).

[3] = test system: Salmonella typhimurium G46 missense histidine-auxotroph; assay type: cell-based
Procedure: Compounds found active in the qualitative test were further tested. The culture to be tested was grown to stationary phase in tryptone yeast broth and then diluted to a viable count of about 9×10^7 organisms per milliliter.
Eleven log4 dilutions of the test compound were made covering a range that would allow survival of nonlethal mutants. The dilutions were made in Spizizen's minimal media with minute amounts of histidine and biotin (20 nM) each in […]. tubes. Each tube contained 3 ml. after dilution. Replicate 1 ml. aliquots of test organism were added to each tube including six "0" drug tubes. Final drug concentrations were calculated from 4-ml. volumes (3 ml. drug dilution +1 ml. test organism). Two of the "0" drug tubes were immediately plated at 10° dilution in minimal medium and 10^-5, 10^-6, 10^-7 dilutions in medium containing excess histidine (40 mcg/ml.) Spontaneous revertants (histidine+) were detected in the 10° dilution. Mutable population (histidine-) were detected in the 10^-5, 10^-6, and 10^-7 dilutions. All remaining dilutions were incubated in a Dubonoff shaker at 37° C. for 4 hr., then iced at 4° C. […] A 1-ml. aliquot from each "0" control was also plated at 10^-6, 10^-7, and 10^-8 dilutions in media with excess histidine to detect growth of mutable population (histidine-); normally there are 3-4 generations of the mutable population. All minimal media plates were counted. A dose response increase in revertants above spontaneous background indicated mutagenic potential of a test compound. […] Lethality has occurred to both populations, histidine+ and histidine-, at the same compound levels in all drugs tested to date.
The results are recorded as mutants test/mutants control.

neoplasms in NZBxW mice = conditions: cited from earlier work
[4] = test system: graft versus host reaction; assay: Graft versus host (GVH) reaction, spleen weight (Tables 20, 21); assay type: in vivo, mice (C57BL donors, F1 hybrid C57BL×C3H recipients)
Procedure: In this determination, […] (C57BL) mouse spleen cells are injected into mice of an F1 hybrid strain (C57BL×C3H). […] The injected cells, however, mount a reaction to the recipient's tissues due to the foreign C3H-derived antigens. As a consequence, the recipient's spleen becomes enlarged. Immunosuppressive therapy prevents or reduces this enlargement. Thus, spleen weights provide a measure of the GVH reaction and its reduction under immunosuppression.
Treated and GVH control animals receive an intraperitoneal injection of 1.2×10^9 splenic lymphocytes from the C57 donors. Spleens are weighed ten days later. Spleen weights derived from groups of recipient mice receiving genetically homologous, i.e., syngeneic cells (C57BL×C3H) provide normal control values for calculating percent inhibition in drug-treated groups. For example, mice given 13 daily topical doses of 1-(4,5,6,7-tetra-hydro-2-benzothiazolyl)-3-phenyl urea show a 62% reduction in GVH reaction relative to controls, as set forth in Table 20.
Using this procedure, three compounds from the above useful in the processes of this invention have been compared with several reference immunosuppressive drugs. Treatment levels defining the 50 percent inhibitory dose have been determined.

[5] = test system: antibody to sheep red blood cells; assay: 75 percent reduction of control antibody titer in mice by subcutaneous, percutaneous and oral routes (Table 16); assay type: in vivo, male Swiss mice; conditions: Mus musculus, Erythrocyte
Procedure: Subcutaneous, percutaneous, and oral activity have been achieved as indicated in Table 16 which follows employing representative compounds from the above entitled application. […] Except as indicated, the tests were performed using groups of five 20-gram male Swiss mice injected with 5×10^7 sheep red blood cells intravenously for each drug level. Ten (daily) administrations of drug were made commencing three days prior to red blood cell injection. On the day following the final treatment (7 days after red blood cell injection) the animals were bled by cardiac puncture, the sera from each five-mouse-group were pooled, and antibody titers of these serum pools and corresponding serum pools from control (untreated) mouse groups were determined. The results are expressed as the minimum drug dose effecting 75 percent reduction of control antibody titer: […]

[6] = test system: antibody response to sheep blood cells (hemaglutination titer); assay: Immune regulating test: suppression of hemaglutination titer by 4-fold factor in mice (i.p. drug, i.p. sheep blood cells), Tables 1-15; assay type: in vivo, Swiss mice; conditions: Mus musculus, ip, 192 h, × 3, intraperitoneal, minimum dose to suppress the hemaglutination titer by a 4-fold factor, 8 days after antigen, read-out: Immuno-Suppressant ED4-Fold
Procedure: The ability of compounds according to the above formulas to alter immune mechanisms in a host animal was measured by their activity according to the following test. Groups of five 20-gram Swiss mice were injected intraperitoneally with standardized suspensions of an antigen--in this instance sheep blook cells. […] Eight days after injection of the antigen, the mice were bled and the sera from each group pooled. Antibody determinations were made on the serum pools by a hemaglutination pattern procedure and comparisons made between treated and control animals. In Tables 1-18 which follow, the activity of the compounds listed therein is given in terms of the minimum dose of drug necessary to suppress the hemaglutination titer by a 4-fold factor in the treated mice as compared with control titers.

[7] = test system: antibody to the sheep red blood cell antigen; assay: Antibody response to sheep red blood cells in marmosets, injected drug; assay type: in vivo; conditions: 25 mg/kg daily for three days
Procedure: In order to determine if the compounds disclosed herein had immunoalterant activity in a primate species, representative numbers of the series were tested in marmosets. 1-(2-Fluorophenyl)-3-(6-methoxy-2-benzothiazolyl) urea was injected in 25 mg/kg doses daily for three days into five marmosets. A similar group of five untreated marmosets was reserved as a control series. On the day following the third treatment, all animals received intraperitoneal injections of antigen (1×10^9 sheep red blood cells). On the 7th day following antigen injection, serum levels of antibody to the sheep red blood cell antigen were determined.

[8] = sc, subcutaneous, × 10 daily doses commencing 3 days before antigen i.v., read-out: Lowest Dose Producing 75% Immunosuppression, Subcutaneous
[9] = oral, × 10 daily doses commencing 3 days before antigen i.v., read-out: Lowest Dose Producing 75% Immunosuppression, Oral
[10] = percutaneous, × 10 daily doses commencing 3 days before antigen i.v., read-out: Lowest Dose Producing 75% Immunosuppression, Percutaneous
[11] = 300 mg/kg, s.c., MT/MC of 3 would indicate mutagenic potential

CC(=O)Oc1ccccc1C(=O)O [ASA, Acetylsalicylic Acid]
IN VITRO QUALITATIVE ACTIVITY [1]: N | IN VIVO mutants test/mutants control ([2]; 30 mg/kg, oral gavage): 1.11 | IN VIVO mutants test/mutants control ([2]; 300 mg/kg, oral gavage): 1.06 | IN VITRO QUANTITATIVE MT/MC ([3]; 750 mcg/ml): .58

Cn1cnc([N+](=O)[O-])c1Sc1ncnc2nc[nH]c12 [Azathioprine, reference compound]
increase in neoplasms (neoplasms in NZBxW mice; Casey, New Zealand Medical Journal 74,290 (1973), control 0 percent): 58% | Percent GVH Inhibition ([4]; 5 mg/kg × 13, s.c.): 43% | Percent GVH Inhibition ([4]; 10 mg/kg × 13, s.c.): 61% | minimal effective dose [5, 8]: 50 to 100 mg/kg | minimal effective dose [5, 9]: 50 mg/kg | minimal effective dose [5, 10]: 100 mg/kg | mutagenic potential in the host-mediated system ([2]; high levels): POSSIBLE MUTAGENIC POTENTIAL

C[C@]12CCC(=O)C=C1CC[C@@H]1[C@@H]2C(=O)C[C@@]2(C)[C@H]1CC[C@]2(O)C(=O)CO [Cortisone, reference compound]
Percent GVH Inhibition ([4]; 1.56 mg/kg × 13, s.c.): 48% | Percent GVH Inhibition ([4]; 3.12 mg/kg × 13, s.c.): 82% | minimal effective dose [5, 8]: 25 mg/kg | minimal effective dose ([5]; oral, × 10, **antigen given intraperitoneally, read-out: Lowest Dose Producing 75% Immunosuppression, Oral): 200 to 400 mg/kg | minimal effective dose [5, 10]: 50 mg/kg

O=P1(N(CCCl)CCCl)NCCCO1 (stereo not shown) [Cyclophosphamide, reference compound]
incidence of neoplasms (neoplasms in NZBxW mice; Walker and Bole, J. Lab. Clin. Med. 82,619 (1972), control 5 percent): 100% | Percent GVH Inhibition ([4]; 6.25 mg/kg × 13, s.c.): 32% | Percent GVH Inhibition ([4]; 12.5 mg/kg × 13, s.c.): 53% | minimal effective dose [5, 9]: 25 mg/kg | minimal effective dose [5, 10]: 25 mg/kg

CN(C)N=O [DMNA, N-nitrosodimethylamine]
IN VITRO QUALITATIVE ACTIVITY [1]: N | IN VIVO mutants test/mutants control ([2]; 3 mg/kg, s.c.): 1.16 | IN VIVO mutants test/mutants control ([2]; 30 mg/kg, s.c.): 43.6 | IN VIVO mutants test/mutants control [2, 11]: 620 | requirement of host mediation for mutagenic potential ([2]; mouse, in vivo): requiring host-mediation to demonstrate mutagenic potential | IN VITRO QUANTITATIVE MT/MC ([3]; 750 mcg/ml): .33

CN(N=O)C(=O)N[C@H]1C(O)O[C@H](CO)[C@@H](O)[C@@H]1O (stereo partly shown) [STREPTOZOTOCIN]
IN VITRO QUALITATIVE FREQ (mutation frequency) [1]: HIGH | IN VIVO mutants test/mutants control ([2]; 3 mg/kg, s.c.): 2782 | IN VIVO mutants test/mutants control ([2]; 30 mg/kg, s.c.): 444 | IN VIVO mutants test/mutants control ([2]; .03 mg/kg, s.c.): 3.35 | IN VIVO mutants test/mutants control ([2]; .3 mg/kg, s.c.): 278 | IN VITRO QUANTITATIVE MT/MC ([3]; .11 mcg/ml): 6750

C1CN1c1nc(N2CC2)nc(N2CC2)n1 [TEM, trimethylenemelamine]
IN VITRO QUALITATIVE FREQ (mutation frequency) [1]: MEDIUM | IN VIVO mutants test/mutants control ([2]; 3 mg/kg, s.c.): 13 | IN VIVO mutants test/mutants control ([2]; 30 mg/kg, s.c.): 27 | IN VIVO mutants test/mutants control [2, 11]: 13 | IN VIVO mutants test/mutants control ([2]; .3 mg/kg, s.c.): 3.2 | IN VITRO QUANTITATIVE MT/MC ([3]; 180 mcg/ml): 24

COc1ccc2nc(NC(=O)Nc3ccccc3F)sc2c1 [Table 11: o-fluorophenyl, 6-CH3 O, S, 1-(2-Fluorophenyl)-3-(6-methoxy-2-benzothiazolyl) urea]
minimal effective dose [6]: < 3.1 mg/kg | treated animals showing detectable antibody ([7]; injected, five marmosets, 7th day following antigen): only one of the treated animals | antibody titer of the responding treated animal ([7]; controls titers from 1-10 to 1-80): 1-10

O=C(Nc1ccccc1)Nc1nc2ccccc2s1 [Table 11: phenyl, H, S, 1-(2-benzothiazolyl)-3-phenyl urea]
minimal effective dose [6]: 6.2 mg/kg | Percent GVH Inhibition ([4]; 0.8 mg/kg × 13, s.c.): 29% | Percent GVH Inhibition ([4]; 1.6 mg/kg × 13, oral): 46% | Percent GVH Inhibition ([4]; 1.6 mg/kg × 13, s.c.): 54% | Percent GVH Inhibition ([4]; 3.12 mg/kg × 13, oral): 64% | minimal effective dose [5, 8]: 1 mg/kg | minimal effective dose [5, 9]: 25 mg/kg | minimal effective dose [5, 10]: 6.2 to 12.5 mg/kg

O=C(Nc1ccccc1)Nc1nc2c(s1)CCCC2 [Table 13: phenyl, 1-(4,5,6,7-tetrahydro-2-benzothiazolyl)-3-phenyl urea]
minimal effective dose [6]: 25 mg/kg | Percent GVH Inhibition ([4]; 50 mg/kg × 13, oral): 41% | Percent Inhibition of GVH reaction ([4]; 100 mg/kg × 13, daily topical): 62% | Mg Spleen/g Body Weight ± S.E. ([4]; 100 mg/kg × 13, daily topical, GVH control 11.03 ± 0.35, syn. control 5.20 ± 0.37): 7.42 ± 0.63 Mg Spleen/g Body Weight | Percent GVH Inhibition ([4]; 100 mg/kg × 13, oral): 54% | minimal effective dose [5, 8]: 12.5 mg/kg | minimal effective dose [5, 9]: 25 to 100 mg/kg | minimal effective dose [5, 10]: 3.1 mg/kg
